System: MV-4-11 cells
Assay: Gene expression microarray analysis (Affymetrix PrimeView) and GSEA
Type: cell-based, human
Parameters: RFU PODN (11730768_x_at) / Fold change /veh PODN (11730768_x_at) / RFU LINC00158 (11744669_a_at) / Fold change /veh LINC00158 (11744669_a_at) / RFU DUSP10 (11751237_a_at) / Fold change /veh DUSP10 (11751237_a_at) / RFU ID3 (11757404_x_at) / Fold change /veh ID3 (11757404_x_at) / RFU PLEKHG5 (11737974_s_at) / Fold change /veh PLEKHG5 (11737974_s_at) / RFU LRRC4B (11730491_at) / Fold change /veh LRRC4B (11730491_at) / RFU GIMAP4 (11747438_a_at) / Fold change /veh GIMAP4 (11747438_a_at) / RFU KRT8 (11758183_x_at) / Fold change /veh KRT8 (11758183_x_at) / RFU CNN1 (11734310_a_at) / Fold change /veh CNN1 (11734310_a_at) / RFU VPS37D (11726825_at) / Fold change /veh VPS37D (11726825_at) / RFU C10orf10 (11716522_x_at) / Fold change /veh C10orf10 (11716522_x_at) / RFU KIR2DL2 /// KIR2DL4 /// KIR2DL5A /// KIR2DL5B /// KIR2DS1 /// KIR2DS2 /// KIR2DS3 /// KIR2DS4 /// KIR3DL3 /// KIR3DL3 /// KIR3DS1 (11738374_at) / Fold change /veh KIR2DL2 /// KIR2DL4 /// KIR2DL5A /// KIR2DL5B /// KIR2DS1 /// KIR2DS2 /// KIR2DS3 /// KIR2DS4 /// KIR3DL3 /// KIR3DL3 /// KIR3DS1 (11738374_at) / RFU C1QL1 (11718748_at) / Fold change /veh C1QL1 (11718748_at) / RFU TMPRSS4 (11747572_a_at) / Fold change /veh TMPRSS4 (11747572_a_at) / RFU HAMP (11756126_x_at) / Fold change /veh HAMP (11756126_x_at) / RFU RNFT2 (11725882_a_at) / Fold change /veh RNFT2 (11725882_a_at) / RFU NR4A2 (11747474_a_at) / Fold change /veh NR4A2 (11747474_a_at) / RFU ABCC12 (11746883_a_at) / Fold change /veh ABCC12 (11746883_a_at) / RFU TMEM136 (11760407_x_at) / Fold change /veh TMEM136 (11760407_x_at) / RFU CLDN22 /// WWC2 (11732394_at) / Fold change /veh CLDN22 /// WWC2 (11732394_at) / RFU HLA-DPB1 (11760878_x_at) / Fold change /veh HLA-DPB1 (11760878_x_at) / RFU SPINT1 (11716480_a_at) / Fold change /veh SPINT1 (11716480_a_at) / RFU GAP43 (11754022_s_at) / Fold change /veh GAP43 (11754022_s_at) / RFU A4GNT (11735810_at) / Fold change /veh A4GNT (11735810_at) / RFU PRB3 (11715151_x_at) / Fold change /veh PRB3 (11715151_x_at) / RFU TUBB4B (11761932_at) / Fold change /veh TUBB4B (11761932_at) / RFU CAPN14 (11732068_a_at) / Fold change /veh CAPN14 (11732068_a_at) / RFU TMCC2 (11721928_a_at) / Fold change /veh TMCC2 (11721928_a_at) / RFU IRGQ (11745062_a_at) / Fold change /veh IRGQ (11745062_a_at) / RFU FAM174B (11720279_a_at) / Fold change /veh FAM174B (11720279_a_at) / RFU TMPRSS4 (11748680_a_at) / Fold change /veh TMPRSS4 (11748680_a_at) / RFU FAM212B (11763350_a_at) / Fold change /veh FAM212B (11763350_a_at) / RFU PLEKHG5 (11743358_a_at) / Fold change /veh PLEKHG5 (11743358_a_at) / RFU ZSCAN30 (11745921_a_at) / Fold change /veh ZSCAN30 (11745921_a_at) / RFU CMKLR1 (11741424_a_at) / Fold change /veh CMKLR1 (11741424_a_at) / RFU LOC101060620 /// MAPK8IP1 (11723275_at) / Fold change /veh LOC101060620 /// MAPK8IP1 (11723275_at) / RFU SPTSSB (11747773_x_at) / Fold change /veh SPTSSB (11747773_x_at) / RFU PRSS12 (11739890_at) / Fold change /veh PRSS12 (11739890_at) / RFU BIN1 (11741810_x_at) / Fold change /veh BIN1 (11741810_x_at) / RFU WNT11 (11732464_a_at) / Fold change /veh WNT11 (11732464_a_at) / RFU C10orf10 (11716521_a_at) / Fold change /veh C10orf10 (11716521_a_at) / RFU C5orf56 (11738089_at) / Fold change /veh C5orf56 (11738089_at) / RFU CYB561 (11721691_x_at) / Fold change /veh CYB561 (11721691_x_at) / RFU ANKRD19P (11752326_a_at) / Fold change /veh ANKRD19P (11752326_a_at) / RFU OR2T12 /// OR2T33 /// OR2T8 (11738714_s_at) / Fold change /veh OR2T12 /// OR2T33 /// OR2T8 (11738714_s_at) / RFU VCAN (11748164_a_at) / Fold change /veh VCAN (11748164_a_at) / RFU JSRP1 (11732532_at) / Fold change /veh JSRP1 (11732532_at) / RFU KRTAP10-11 (11738290_x_at) / Fold change /veh KRTAP10-11 (11738290_x_at) / RFU MYO3A (11730013_a_at) / Fold change /veh MYO3A (11730013_a_at) / RFU EBF3 (11725865_a_at) / Fold change /veh EBF3 (11725865_a_at) / RFU CAMK2N1 (11719241_x_at) / Fold change /veh CAMK2N1 (11719241_x_at) / RFU C5orf56 (11738088_a_at) / Fold change /veh C5orf56 (11738088_a_at) / RFU OLFML3 (11715873_a_at) / Fold change /veh OLFML3 (11715873_a_at) / RFU LOC100653217 /// NTM (11731650_a_at) / Fold change /veh LOC100653217 /// NTM (11731650_a_at) / RFU MAPK11 (11762145_a_at) / Fold change /veh MAPK11 (11762145_a_at) / RFU FIZ1 (11724087_x_at) / Fold change /veh FIZ1 (11724087_x_at) / RFU OASL (11726364_x_at) / Fold change /veh OASL (11726364_x_at) / RFU SOX15 (11748057_x_at) / Fold change /veh SOX15 (11748057_x_at) / RFU CD79A (11719716_a_at) / Fold change /veh CD79A (11719716_a_at) / RFU HIST1H1D (11736915_at) / Fold change /veh HIST1H1D (11736915_at) / RFU CASKIN2 (11723855_a_at) / Fold change /veh CASKIN2 (11723855_a_at) / RFU LOC730098 (11760151_x_at) / Fold change /veh LOC730098 (11760151_x_at) / RFU OR4N2 (11742367_at) / Fold change /veh OR4N2 (11742367_at) / RFU PRRT2 (11749266_a_at) / Fold change /veh PRRT2 (11749266_a_at) / RFU SNX32 (11753110_a_at) / Fold change /veh SNX32 (11753110_a_at) / RFU CDHR5 (11726645_a_at) / Fold change /veh CDHR5 (11726645_a_at) / RFU RCAN1 (11760418_a_at) / Fold change /veh RCAN1 (11760418_a_at) / RFU FAM167A (11723789_a_at) / Fold change /veh FAM167A (11723789_a_at) / RFU FAM26E (11764081_at) / Fold change /veh FAM26E (11764081_at) / RFU ISYNA1 (11749810_s_at) / Fold change /veh ISYNA1 (11749810_s_at) / RFU ACY1 (11761880_at) / Fold change /veh ACY1 (11761880_at) / RFU 11764098_at / Fold change /veh 11764098_at / RFU SAMD14 (11745864_x_at) / Fold change /veh SAMD14 (11745864_x_at) / RFU NPB (11741838_a_at) / Fold change /veh NPB (11741838_a_at) / RFU TMPRSS6 (11731388_a_at) / Fold change /veh TMPRSS6 (11731388_a_at) / RFU KRTAP10-2 (11738614_at) / Fold change /veh KRTAP10-2 (11738614_at) / RFU ARHGAP8 /// PRR5-ARHGAP8 (11727945_x_at) / Fold change /veh ARHGAP8 /// PRR5-ARHGAP8 (11727945_x_at) / RFU KRTAP5-7 /// NADSYN1 (11734609_at) / Fold change /veh KRTAP5-7 /// NADSYN1 (11734609_at) / RFU RASL12 (11751679_a_at) / Fold change /veh RASL12 (11751679_a_at) / RFU CDKN2B (11736163_a_at) / Fold change /veh CDKN2B (11736163_a_at) / RFU PRF1 (11729649_at) / Fold change /veh PRF1 (11729649_at) / RFU, ZNF638 /// ZNF638-IT1 / Fold change vs veh, ZNF638 /// ZNF638-IT1 / RFU, PANK3 / Fold change vs veh, PANK3 / RFU, SH3YL1 / Fold change vs veh, SH3YL1 / RFU, ZEB2 / Fold change vs veh, ZEB2 / RFU, NRIP1 / Fold change vs veh, NRIP1 / RFU, PTTG1IP / Fold change vs veh, PTTG1IP / RFU, CAPN2 / Fold change vs veh, CAPN2 / RFU, MED14 / Fold change vs veh, MED14 / RFU, SNORA58 / Fold change vs veh, SNORA58 / RFU, C1orf63 / Fold change vs veh, C1orf63 / RFU, LRRFIP1 / Fold change vs veh, LRRFIP1 / RFU, NDUFAF7 / Fold change vs veh, NDUFAF7 / RFU, SLC12A2 / Fold change vs veh, SLC12A2 / RFU, IBTK / Fold change vs veh, IBTK / RFU, ESF1 / Fold change vs veh, ESF1 / Fold change vs veh, TMEM50B / RFU, TAOK1 / Fold change vs veh, TAOK1 / RFU, ACBD3 / Fold change vs veh, ACBD3 / RFU, TMA16 / Fold change vs veh, TMA16 / RFU, RWDD3 / Fold change vs veh, RWDD3 / RFU, BCAT1 / Fold change vs veh, BCAT1 / RFU, EDEM3 / Fold change vs veh, EDEM3 / RFU, TMEM33 / Fold change vs veh, TMEM33 / RFU, WDR75 / Fold change vs veh, WDR75 / RFU, AHCTF1 / Fold change vs veh, AHCTF1 / RFU, TFRC / Fold change vs veh, TFRC / RFU, ZDHHC17 / Fold change vs veh, ZDHHC17 / RFU, NOM1 / Fold change vs veh, NOM1 / RFU, ARL8B / Fold change vs veh, ARL8B / RFU, ZBTB11 / Fold change vs veh, ZBTB11 / RFU, TAMM41 / Fold change vs veh, TAMM41 / RFU, KIAA1704 /// LOC100996395 / Fold change vs veh, KIAA1704 /// LOC100996395 / RFU, ING1 / Fold change vs veh, ING1 / RFU, TRMT61B / Fold change vs veh, TRMT61B / RFU, FUBP3 / Fold change vs veh, FUBP3 / RFU, TP53 / Fold change vs veh, TP53 / RFU, TNKS2 / Fold change vs veh, TNKS2 / RFU, ZFP14 / Fold change vs veh, ZFP14 / RFU, ACTR2 / Fold change vs veh, ACTR2 / RFU, PPP3R1 / Fold change vs veh, PPP3R1 / RFU, PIK3R1 / Fold change vs veh, PIK3R1 / RFU, HNRNPA1 / Fold change vs veh, HNRNPA1 / RFU, RNF170 / Fold change vs veh, RNF170 / RFU, ZNF28 / Fold change vs veh, ZNF28 / RFU, RNGTT / Fold change vs veh, RNGTT / RFU, OGT / Fold change vs veh, OGT / RFU, BRD1 / Fold change vs veh, BRD1 / RFU, MARS / Fold change vs veh, MARS / RFU, ZNF655 / Fold change vs veh, ZNF655 / RFU, FAHD1 / Fold change vs veh, FAHD1 / RFU, BDP1 / Fold change vs veh, BDP1 / RFU, LRRCC1 / Fold change vs veh, LRRCC1 / RFU, ARID1A / Fold change vs veh, ARID1A / RFU, ZNF146 / Fold change vs veh, ZNF146 / RFU, ZNF330 / Fold change vs veh, ZNF330 / RFU, GPN3 / Fold change vs veh, GPN3 / RFU, C9orf123 / Fold change vs veh, C9orf123 / RFU, N4BP2L2 / Fold change vs veh, N4BP2L2 / RFU, ARFIP1 / Fold change vs veh, ARFIP1 / RFU, FAM179B / Fold change vs veh, FAM179B / RFU, BCL10 / Fold change vs veh, BCL10 / RFU, UHRF1BP1L / Fold change vs veh, UHRF1BP1L / RFU, BET1 / Fold change vs veh, BET1 / RFU, CNOT2 / Fold change vs veh, CNOT2 / RFU, ZNF268 / Fold change vs veh, ZNF268 / Fold change vs veh, ZNF507 / RFU, DGCR2 / Fold change vs veh, DGCR2 / RFU, WDSUB1 / Fold change vs veh, WDSUB1 / Fold change vs veh, HSP90B1 /// MIR3652 / RFU, ADSS / Fold change vs veh, ADSS / RFU, GK / Fold change vs veh, GK / RFU, ZNF148 / Fold change vs veh, ZNF148 / RFU, TAF9 / Fold change vs veh, TAF9 / RFU, SLC1A5 / Fold change vs veh, SLC1A5 / RFU, SLMO2 / Fold change vs veh, SLMO2 / RFU, ABCC4 / Fold change vs veh, ABCC4 / RFU, LOC101060439 /// RAP1B / Fold change vs veh, LOC101060439 /// RAP1B / RFU, RFX7 / Fold change vs veh, RFX7 / RFU, GTPBP10 / Fold change vs veh, GTPBP10 / RFU, CNEP1R1 / Fold change vs veh, CNEP1R1 / RFU, BIVM-ERCC5 /// ERCC5 / Fold change vs veh, BIVM-ERCC5 /// ERCC5 / RFU, ILF3 / Fold change vs veh, ILF3 / RFU 11762660_at / Fold change /veh 11762660_at / RFU VCAN (11757783_s_at) / Fold change /veh VCAN (11757783_s_at) / RFU DDX43 (11728927_at) / Fold change /veh DDX43 (11728927_at) / RFU KRT8 (11758188_x_at) / Fold change /veh KRT8 (11758188_x_at) / RFU NKD1 (11759106_at) / Fold change /veh NKD1 (11759106_at) / RFU SRD5A1 (11742802_a_at) / Fold change /veh SRD5A1 (11742802_a_at) / RFU TPSAB1 /// TPSB2 (11721975_s_at) / Fold change /veh TPSAB1 /// TPSB2 (11721975_s_at) / RFU GSTM3 (11746129_a_at) / Fold change /veh GSTM3 (11746129_a_at) / RFU IL23R (11737362_x_at) / Fold change /veh IL23R (11737362_x_at) / RFU TMEM51 (11727254_a_at) / Fold change /veh TMEM51 (11727254_a_at) / RFU PIWIL2 (11732686_x_at) / Fold change /veh PIWIL2 (11732686_x_at) / RFU ORM1 (11744905_x_at) / Fold change /veh ORM1 (11744905_x_at) / RFU CCDC152 (11743942_at) / Fold change /veh CCDC152 (11743942_at) / RFU ECM1 (11717891_a_at) / Fold change /veh ECM1 (11717891_a_at) / RFU IL23R (11748794_a_at) / Fold change /veh IL23R (11748794_a_at) / RFU TNFAIP8L3 (11732012_x_at) / Fold change /veh TNFAIP8L3 (11732012_x_at) / RFU MBOAT4 (11741988_at) / Fold change /veh MBOAT4 (11741988_at) / RFU 11764193_at / Fold change /veh 11764193_at / RFU TMEM53 (11763286_at) / Fold change /veh TMEM53 (11763286_at) / RFU MAGEB2 (11727129_at) / Fold change /veh MAGEB2 (11727129_at) / RFU TMEM200A (11744735_a_at) / Fold change /veh TMEM200A (11744735_a_at) / RFU CCDC152 (11751479_a_at) / Fold change /veh CCDC152 (11751479_a_at) / RFU FAM211A (11726209_a_at) / Fold change /veh FAM211A (11726209_a_at) / RFU RGS16 (11746705_a_at) / Fold change /veh RGS16 (11746705_a_at) / RFU VCAN (11755009_s_at) / Fold change /veh VCAN (11755009_s_at) / RFU RHOB (11743442_s_at) / Fold change /veh RHOB (11743442_s_at) / RFU RGS16 (11720943_a_at) / Fold change /veh RGS16 (11720943_a_at) / RFU RGS16 (11720944_at) / Fold change /veh RGS16 (11720944_at) / RFU, VPS4B / Fold change vs veh, VPS4B / RFU, CREB1 / Fold change vs veh, CREB1 / RFU, DNAJC13 / Fold change vs veh, DNAJC13 / RFU, GNAQ / Fold change vs veh, GNAQ / RFU, CDK5R1 / Fold change vs veh, CDK5R1 / RFU, ZRANB3 / Fold change vs veh, ZRANB3 / RFU, CUL4A / Fold change vs veh, CUL4A / RFU, CCNY / Fold change vs veh, CCNY / RFU, UFL1 / Fold change vs veh, UFL1 / RFU, COG3 / Fold change vs veh, COG3 / RFU, DIAPH2 / Fold change vs veh, DIAPH2 / RFU, SKA2 / Fold change vs veh, SKA2 / RFU, AFF3 / Fold change vs veh, AFF3 / RFU, LMF1 / Fold change vs veh, LMF1 / RFU, IPO11 / Fold change vs veh, IPO11 / RFU, DFFB / Fold change vs veh, DFFB / RFU, FOXP1 / Fold change vs veh, FOXP1 / RFU, CARD8 / Fold change vs veh, CARD8 / RFU, STRN3 / Fold change vs veh, STRN3 / RFU, ADK / Fold change vs veh, ADK / RFU, RASSF2 / Fold change vs veh, RASSF2 / RFU, WIPF1 / Fold change vs veh, WIPF1 / RFU, LARP1B / Fold change vs veh, LARP1B / RFU, RASA1 / Fold change vs veh, RASA1 / RFU, RB1 / Fold change vs veh, RB1 / RFU, PPFIA1 / Fold change vs veh, PPFIA1 / RFU, MAT2A / Fold change vs veh, MAT2A / RFU, CCT5 / Fold change vs veh, CCT5 / RFU, WDR92 / Fold change vs veh, WDR92 / RFU, CUX1 / Fold change vs veh, CUX1 / RFU, TTC7A / Fold change vs veh, TTC7A / RFU, TMEM135 / Fold change vs veh, TMEM135 / RFU, DEPTOR / Fold change vs veh, DEPTOR / RFU, CPM / Fold change vs veh, CPM / RFU, DNAJB6 / Fold change vs veh, DNAJB6 / RFU, CACNA2D3 / Fold change vs veh, CACNA2D3 / RFU, DTX4 / Fold change vs veh, DTX4 / RFU, TFCP2 / Fold change vs veh, TFCP2 / RFU, GMCL1 /// GMCL1P1 / Fold change vs veh, GMCL1 /// GMCL1P1 / RFU, AEBP2 / Fold change vs veh, AEBP2 / RFU, SNHG1 /// SNORD22 /// SNORD25 /// SNORD26 /// SNORD27 /// SNORD28 /// SNORD29 /// SNORD31 / Fold change vs veh, SNHG1 /// SNORD22 /// SNORD25 /// SNORD26 /// SNORD27 /// SNORD28 /// SNORD29 /// SNORD31 / Fold change (Aza/veh), C12orf56 (ProbeSet 11735607_a_at) / Fold change (ACY-1035/veh), C12orf56 (ProbeSet 11735607_a_at) / Fold change (Aza/veh), FGFR1OP (ProbeSet 11751329_s_at) / Fold change (ACY-1035/veh), FGFR1OP (ProbeSet 11751329_s_at) / Fold change (Aza/veh), VPS36 (ProbeSet 11739960_a_at) / Fold change (ACY-1035/veh), VPS36 (ProbeSet 11739960_a_at) / RFU SYPL1 (11715823_x_at) / Fold change /veh SYPL1 (11715823_x_at) / RFU IGFBP7 (11715501_s_at) / Fold change /veh IGFBP7 (11715501_s_at) / RFU REEP3 (11722064_at) / Fold change /veh REEP3 (11722064_at) / RFU IGLL1 (11728026_x_at) / Fold change /veh IGLL1 (11728026_x_at): dose or concentration left out as unconfirmed
Details: MV-4-11 cells, 48 hours

Structure (SMILES): Nc1ccc(-c2cccs2)cc1NC(=O)c1ccc2c(c1)cc(C1CC1)n2CCN1CCOCC1 [ACY-1035]
- Fold change /veh C1QL1 (11718748_at): 0.88

— PMC5218480 (PLoS ONE, 2017)
